Reference: ChEMBL document CHEMBL5360607, “The Hitchhiker's Guide to Deep Learning Driven Generative Chemistry” (ACS Med Chem Lett, 2023)
pEC50, pIC50, pKi: −log10 of the molar value. Blank lines part the entries; values can stand above or below the compound they belong to.

Key:
[1] = target: Serine/threonine-protein kinase B-raf (Homo sapiens, UniProt P15056); assay: Inhibition of BRAF (unknown origin)
[2] = target: Tyrosine-protein kinase JAK2 (Homo sapiens) (UniProt O60674); assay: Inhibition of JAK2 (unknown origin) at 1 uM relative to control
[3] = target: T1, Receptor-type tyrosine-protein kinase FLT3 (Homo sapiens, UniProt P36888); assay: Inhibition of FLT3 (unknown origin)
T1 sequence (P36888 whole entry): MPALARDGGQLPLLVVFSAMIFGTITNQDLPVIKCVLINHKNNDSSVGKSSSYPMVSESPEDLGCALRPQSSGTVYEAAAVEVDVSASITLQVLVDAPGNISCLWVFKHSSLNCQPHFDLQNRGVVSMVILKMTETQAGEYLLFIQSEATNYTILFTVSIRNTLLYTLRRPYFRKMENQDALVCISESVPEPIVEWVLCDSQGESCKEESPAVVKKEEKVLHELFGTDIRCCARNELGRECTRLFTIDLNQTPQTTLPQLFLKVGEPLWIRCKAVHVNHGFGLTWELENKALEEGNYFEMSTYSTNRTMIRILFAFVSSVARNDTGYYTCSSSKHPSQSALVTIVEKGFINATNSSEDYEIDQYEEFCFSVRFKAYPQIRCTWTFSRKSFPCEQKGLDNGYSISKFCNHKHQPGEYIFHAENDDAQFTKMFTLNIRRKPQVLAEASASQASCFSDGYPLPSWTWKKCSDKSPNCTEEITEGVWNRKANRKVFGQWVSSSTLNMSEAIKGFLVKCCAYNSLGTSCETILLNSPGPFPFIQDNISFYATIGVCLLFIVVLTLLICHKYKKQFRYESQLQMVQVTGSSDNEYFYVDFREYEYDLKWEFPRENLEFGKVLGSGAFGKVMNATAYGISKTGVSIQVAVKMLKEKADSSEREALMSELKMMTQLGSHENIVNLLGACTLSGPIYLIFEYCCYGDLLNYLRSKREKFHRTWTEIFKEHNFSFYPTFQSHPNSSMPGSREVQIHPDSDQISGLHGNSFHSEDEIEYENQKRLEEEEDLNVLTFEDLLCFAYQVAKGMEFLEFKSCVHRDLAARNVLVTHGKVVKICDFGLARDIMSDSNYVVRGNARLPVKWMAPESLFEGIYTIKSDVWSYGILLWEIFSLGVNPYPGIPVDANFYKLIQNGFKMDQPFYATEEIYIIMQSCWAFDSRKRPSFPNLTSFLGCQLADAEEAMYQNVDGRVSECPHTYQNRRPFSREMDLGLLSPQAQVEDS

[4] = target: T2, Macrophage colony-stimulating factor 1 receptor (Homo sapiens, UniProt P07333); assay: Inhibition of FMS (unknown origin)
[5] = target: Receptor-type tyrosine-protein kinase FLT3 (Homo sapiens, UniProt P36888, D835Y); assay: Inhibition of FLT3 D835Y (unknown origin)
[6] = target: T3, High affinity nerve growth factor receptor (Homo sapiens, UniProt P04629); assay: Inhibition of TRKA (unknown origin) at 10 uM relative to control
[7] = organism: Homo sapiens; assay: Inhibition of FLT (unknown origin) at 10 uM relative to control
[8] = target: Maternal embryonic leucine zipper kinase (Homo sapiens) (UniProt Q14680); assay: Inhibition of MELK (unknown origin) at 10 uM relative to control
[9] = target: Fibroblast growth factor receptor (Homo sapiens) (UniProt P22607+P11362+P22455+P21802); assay: Inhibition of FGFR (unknown origin) at 10 uM relative to control; assay type: protein assay
[10] = target: Protein kinase C (PKC) (Homo sapiens) (UniProt O94806+P41743+P17252+P05129+Q05655+P05771+Q05513+Q02156+P24723+Q15139+Q04759); assay: Inhibition of PKC (unknown origin) at 10 uM relative to control; assay type: protein assay
[11] = target: T3, High affinity nerve growth factor receptor; assay: Inhibition of TRKA (unknown origin)
[12] = target: Adenosine receptor A2a (Homo sapiens, UniProt P29274); assay: Binding affinity to adenosine receptor A2a (unknown origin) assessed as inhibition constant
[13] = target: T4, Adenosine receptor A1 (Homo sapiens, UniProt P30542); assay: Binding affinity to adenosine receptor A1 (unknown origin) assessed as inhibition constant
T4 sequence (P30542 whole entry): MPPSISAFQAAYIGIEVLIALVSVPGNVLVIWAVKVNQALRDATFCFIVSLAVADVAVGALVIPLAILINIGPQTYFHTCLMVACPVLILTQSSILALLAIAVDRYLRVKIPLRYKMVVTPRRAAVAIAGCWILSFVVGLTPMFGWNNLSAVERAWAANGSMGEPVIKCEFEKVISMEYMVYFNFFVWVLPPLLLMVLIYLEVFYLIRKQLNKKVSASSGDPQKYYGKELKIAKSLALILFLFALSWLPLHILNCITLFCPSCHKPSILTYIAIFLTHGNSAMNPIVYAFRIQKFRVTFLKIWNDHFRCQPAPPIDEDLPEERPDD

[14] = target: T2, Macrophage colony-stimulating factor 1 receptor; assay: Inhibition of CSF1R (unknown origin)
[15] = target: Fibroblast growth factor receptor 1 (Homo sapiens, UniProt P11362); assay: Inhibition of FGFR1 (unknown origin)
[16] = target: Fibroblast growth factor receptor 2 (Homo sapiens, UniProt P21802); assay: Inhibition of FGFR2 (unknown origin)
[17] = target: Fibroblast growth factor receptor 3 (Homo sapiens, UniProt P22607); assay: Inhibition of FGFR3 (unknown origin)
[18] = target: Fibroblast growth factor receptor 4 (Homo sapiens, UniProt P22455); assay: Inhibition of FGFR4 (unknown origin)
[19] = target: Tyrosine-protein kinase BTK (Homo sapiens, UniProt Q06187); assay: Inhibition of BTK (unknown origin)

T2 sequence (P07333 whole entry): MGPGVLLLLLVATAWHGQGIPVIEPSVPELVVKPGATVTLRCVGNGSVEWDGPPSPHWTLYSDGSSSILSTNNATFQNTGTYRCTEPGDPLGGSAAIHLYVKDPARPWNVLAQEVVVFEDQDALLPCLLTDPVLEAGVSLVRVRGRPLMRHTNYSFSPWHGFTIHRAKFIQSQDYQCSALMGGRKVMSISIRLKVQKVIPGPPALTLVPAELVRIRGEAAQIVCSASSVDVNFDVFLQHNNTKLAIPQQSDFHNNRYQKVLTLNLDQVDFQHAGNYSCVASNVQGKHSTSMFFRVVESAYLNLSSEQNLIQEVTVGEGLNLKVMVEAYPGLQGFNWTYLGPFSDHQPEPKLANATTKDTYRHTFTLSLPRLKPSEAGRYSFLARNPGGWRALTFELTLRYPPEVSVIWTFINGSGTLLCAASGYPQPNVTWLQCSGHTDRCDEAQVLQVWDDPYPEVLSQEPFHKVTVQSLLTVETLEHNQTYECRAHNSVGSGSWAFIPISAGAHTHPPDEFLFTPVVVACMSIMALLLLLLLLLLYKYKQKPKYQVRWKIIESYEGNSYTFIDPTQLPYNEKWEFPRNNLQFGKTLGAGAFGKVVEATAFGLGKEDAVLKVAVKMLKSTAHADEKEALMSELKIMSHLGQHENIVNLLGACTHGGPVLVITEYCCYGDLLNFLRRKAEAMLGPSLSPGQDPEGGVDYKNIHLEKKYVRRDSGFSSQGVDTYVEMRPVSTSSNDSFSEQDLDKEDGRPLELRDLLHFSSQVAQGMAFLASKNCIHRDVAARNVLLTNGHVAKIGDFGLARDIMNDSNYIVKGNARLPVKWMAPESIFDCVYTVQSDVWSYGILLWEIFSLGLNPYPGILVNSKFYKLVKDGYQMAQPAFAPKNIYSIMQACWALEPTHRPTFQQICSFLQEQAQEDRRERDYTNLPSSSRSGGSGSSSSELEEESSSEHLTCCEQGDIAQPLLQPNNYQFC
Sequence of Tyrosine-protein kinase JAK2 (Homo sapiens) (O60674 whole entry): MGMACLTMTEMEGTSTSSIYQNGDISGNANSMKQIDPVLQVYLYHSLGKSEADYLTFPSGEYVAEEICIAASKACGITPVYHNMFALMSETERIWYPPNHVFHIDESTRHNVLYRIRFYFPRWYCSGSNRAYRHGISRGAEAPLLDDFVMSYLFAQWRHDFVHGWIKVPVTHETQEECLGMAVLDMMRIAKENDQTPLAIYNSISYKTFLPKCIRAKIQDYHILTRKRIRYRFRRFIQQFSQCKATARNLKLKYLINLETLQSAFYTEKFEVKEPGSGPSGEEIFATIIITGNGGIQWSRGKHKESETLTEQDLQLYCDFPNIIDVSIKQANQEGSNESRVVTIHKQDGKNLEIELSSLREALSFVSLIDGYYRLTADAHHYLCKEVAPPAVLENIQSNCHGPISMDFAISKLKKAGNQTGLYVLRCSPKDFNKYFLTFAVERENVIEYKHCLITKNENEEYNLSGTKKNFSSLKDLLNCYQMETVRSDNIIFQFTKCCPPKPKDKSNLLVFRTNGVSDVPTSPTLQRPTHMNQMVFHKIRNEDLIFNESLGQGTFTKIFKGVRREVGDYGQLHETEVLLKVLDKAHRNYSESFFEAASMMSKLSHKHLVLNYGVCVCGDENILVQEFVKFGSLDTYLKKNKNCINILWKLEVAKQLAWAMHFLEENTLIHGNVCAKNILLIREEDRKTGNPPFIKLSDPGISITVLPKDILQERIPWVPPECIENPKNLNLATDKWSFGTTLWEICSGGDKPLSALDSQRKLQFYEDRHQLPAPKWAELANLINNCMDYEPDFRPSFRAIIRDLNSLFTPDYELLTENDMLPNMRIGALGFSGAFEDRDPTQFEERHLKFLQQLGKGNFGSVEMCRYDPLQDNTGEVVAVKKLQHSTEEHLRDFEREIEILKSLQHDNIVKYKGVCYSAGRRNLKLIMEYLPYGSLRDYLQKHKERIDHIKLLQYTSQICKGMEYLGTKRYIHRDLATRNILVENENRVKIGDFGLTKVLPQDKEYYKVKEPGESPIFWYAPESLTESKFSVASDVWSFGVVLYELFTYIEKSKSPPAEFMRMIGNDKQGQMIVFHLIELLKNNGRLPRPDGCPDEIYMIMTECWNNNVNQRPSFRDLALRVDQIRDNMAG
Sequence of Fibroblast growth factor receptor 4 (P22455 whole entry): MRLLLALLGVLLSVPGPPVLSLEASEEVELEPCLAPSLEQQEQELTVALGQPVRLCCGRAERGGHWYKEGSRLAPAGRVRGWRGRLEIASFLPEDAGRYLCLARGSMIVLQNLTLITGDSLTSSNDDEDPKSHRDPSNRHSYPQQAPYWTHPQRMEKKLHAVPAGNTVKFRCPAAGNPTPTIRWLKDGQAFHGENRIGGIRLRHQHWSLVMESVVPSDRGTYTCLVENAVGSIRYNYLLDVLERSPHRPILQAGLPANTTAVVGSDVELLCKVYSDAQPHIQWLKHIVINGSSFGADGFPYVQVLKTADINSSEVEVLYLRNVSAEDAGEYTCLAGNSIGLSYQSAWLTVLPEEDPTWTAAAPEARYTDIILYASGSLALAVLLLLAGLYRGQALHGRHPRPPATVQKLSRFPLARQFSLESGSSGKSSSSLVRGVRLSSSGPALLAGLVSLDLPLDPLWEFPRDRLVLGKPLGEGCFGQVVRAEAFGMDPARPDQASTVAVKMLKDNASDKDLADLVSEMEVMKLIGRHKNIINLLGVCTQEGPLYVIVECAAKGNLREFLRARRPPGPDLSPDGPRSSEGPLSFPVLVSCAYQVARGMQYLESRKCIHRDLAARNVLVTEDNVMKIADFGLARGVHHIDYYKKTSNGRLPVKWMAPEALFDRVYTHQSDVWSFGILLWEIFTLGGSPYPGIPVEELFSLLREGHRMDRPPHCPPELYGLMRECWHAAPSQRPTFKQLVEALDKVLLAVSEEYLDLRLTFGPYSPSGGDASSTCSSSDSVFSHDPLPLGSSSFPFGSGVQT
Sequence of Fibroblast growth factor receptor 2 (P21802 whole entry): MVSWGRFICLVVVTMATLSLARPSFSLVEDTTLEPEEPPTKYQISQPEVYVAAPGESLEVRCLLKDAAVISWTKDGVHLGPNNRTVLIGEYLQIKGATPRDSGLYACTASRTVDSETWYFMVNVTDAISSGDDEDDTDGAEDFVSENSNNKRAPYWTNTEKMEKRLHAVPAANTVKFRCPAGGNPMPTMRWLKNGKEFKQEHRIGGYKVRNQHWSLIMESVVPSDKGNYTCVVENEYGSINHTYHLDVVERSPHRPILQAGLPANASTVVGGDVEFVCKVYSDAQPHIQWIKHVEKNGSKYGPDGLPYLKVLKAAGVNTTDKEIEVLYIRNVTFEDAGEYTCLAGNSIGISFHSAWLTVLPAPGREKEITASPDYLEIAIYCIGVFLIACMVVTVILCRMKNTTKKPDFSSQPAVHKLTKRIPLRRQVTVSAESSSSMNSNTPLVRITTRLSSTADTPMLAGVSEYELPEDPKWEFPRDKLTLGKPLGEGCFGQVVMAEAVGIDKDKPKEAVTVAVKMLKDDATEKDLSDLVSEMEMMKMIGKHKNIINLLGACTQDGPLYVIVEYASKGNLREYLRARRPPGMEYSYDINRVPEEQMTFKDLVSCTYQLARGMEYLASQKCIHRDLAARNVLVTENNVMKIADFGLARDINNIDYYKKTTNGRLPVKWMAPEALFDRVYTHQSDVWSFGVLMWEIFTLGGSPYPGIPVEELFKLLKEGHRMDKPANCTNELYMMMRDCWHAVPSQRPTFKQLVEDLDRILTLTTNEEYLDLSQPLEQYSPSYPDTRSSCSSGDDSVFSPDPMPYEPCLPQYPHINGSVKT
Sequence of Fibroblast growth factor receptor 3 (P22607 whole entry): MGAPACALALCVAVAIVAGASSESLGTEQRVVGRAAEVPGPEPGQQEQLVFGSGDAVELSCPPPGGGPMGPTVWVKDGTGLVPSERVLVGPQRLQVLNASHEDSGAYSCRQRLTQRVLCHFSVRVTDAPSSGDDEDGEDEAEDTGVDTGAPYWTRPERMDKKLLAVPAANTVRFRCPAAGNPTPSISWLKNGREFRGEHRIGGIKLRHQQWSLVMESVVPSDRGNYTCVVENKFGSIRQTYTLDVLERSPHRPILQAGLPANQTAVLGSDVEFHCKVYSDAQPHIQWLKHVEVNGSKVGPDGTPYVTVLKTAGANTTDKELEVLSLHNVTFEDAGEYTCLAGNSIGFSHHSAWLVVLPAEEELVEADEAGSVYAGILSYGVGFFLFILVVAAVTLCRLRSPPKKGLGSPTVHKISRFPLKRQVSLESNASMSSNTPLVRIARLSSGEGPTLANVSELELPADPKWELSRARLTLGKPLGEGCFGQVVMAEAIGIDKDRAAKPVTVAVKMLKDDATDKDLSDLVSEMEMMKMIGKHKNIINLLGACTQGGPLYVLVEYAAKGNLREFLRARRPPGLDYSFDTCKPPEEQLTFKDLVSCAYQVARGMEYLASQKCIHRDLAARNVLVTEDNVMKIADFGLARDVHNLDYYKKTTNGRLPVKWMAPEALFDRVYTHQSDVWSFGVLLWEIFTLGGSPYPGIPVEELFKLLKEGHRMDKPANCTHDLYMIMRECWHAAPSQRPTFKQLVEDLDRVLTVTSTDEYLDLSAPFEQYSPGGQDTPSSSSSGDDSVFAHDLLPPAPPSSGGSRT
Sequence of Adenosine receptor A2a (P29274 whole entry): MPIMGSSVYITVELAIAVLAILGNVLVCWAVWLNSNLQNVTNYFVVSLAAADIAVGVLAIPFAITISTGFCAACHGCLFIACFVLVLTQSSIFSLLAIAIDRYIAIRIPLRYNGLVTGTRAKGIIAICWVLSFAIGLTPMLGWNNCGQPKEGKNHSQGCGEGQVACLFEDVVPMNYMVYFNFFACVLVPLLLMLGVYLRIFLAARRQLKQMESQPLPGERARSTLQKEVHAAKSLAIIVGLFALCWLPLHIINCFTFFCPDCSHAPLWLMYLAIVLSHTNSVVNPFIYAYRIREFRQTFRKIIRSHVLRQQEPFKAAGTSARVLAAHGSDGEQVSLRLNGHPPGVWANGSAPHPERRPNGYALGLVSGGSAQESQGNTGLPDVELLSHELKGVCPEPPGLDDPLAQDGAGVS

SMILES: COc1cncc(-c2cn(-c3c(F)ccc(NS(=O)(=O)C(C)C)c3F)nn2)c1
- pEC50 [1]: 6.31

SMILES: CN(c1ncccc1CNc1c(C#N)cnc2[nH]ccc12)S(C)(=O)=O
- inhibition [2]: 68%

SMILES: CN(C)S(=O)(=O)Nc1cccc(-c2cnn(-c3ccc(C(F)(F)F)cc3)c2)c1
- pIC50 [3]: 4.87
- pIC50 [5]: 5.74
- inhibition [6]: 55%
- inhibition [7]: 45%
- inhibition [8]: 35%
- inhibition [9]: 35%
- inhibition [10]: 35%
- pIC50 [11]: 5.24

SMILES: O=c1[nH]nc(NC2CCCC2)c2nnn(Cc3cccs3)c12
- pKi [12]: 6.05
- pKi [13]: 7.33

SMILES: O=C(NCc1ccc(C(F)(F)F)nc1)Nc1ccc(Oc2ncnc3[nH]ccc23)cc1
- pIC50 [14]: 7.70

SMILES: COc1ccc(F)cc1C(=O)NCc1ccc(-c2nn(C3CCCC3)c3c(=O)[nH]nc(N)c23)cc1
- pIC50 [19]: 9.30

Results, then the compound that gave them:

- pIC50 [3]: > 7.00
- pIC50 [4]: > 7.00
SMILES: COc1ncc(CNc2ccc(Cc3c[nH]c4ncc(C(F)(F)F)cc34)c(F)n2)cc1F

- pIC50 [15]: > 8.00
- pIC50 [16]: > 8.00
- pIC50 [17]: > 8.00
- pIC50 [18]: > 8.00
SMILES: C=CC(=O)N1CC[C@H](n2cc(-c3cc4ccccc4o3)c3c(N)n[nH]c(=O)c32)C1

- inhibition [2]: 88%
SMILES: CNC(=O)c1ccccc1Nc1c(C(F)(F)F)cnc2[nH]c(-c3ccc(F)cc3)cc12
